Source: patent US10759774B2, “Inhibitors of hepatitis B virus targeting capsid assembly” (THE CURATORS OF THE UNIVERSITY OF MISSOURI, priority 2017, dated 2020)

Columns and labels:
[1] = target: T1, C1502 (HBV capsid protein assembly domain dimer) (Hepatitis B virus genotype D subtype adw, UniProt P03147, R150C); experiment: In vitro capsid assembly analyzed by transmission electron microscopy (TEM); assay type: biochemical; conditions: C1502 10 μM assembled with compound 20 μM
T1 construct: the 149 amino acid assembly domain of HBV capsid protein; made in house; host or cells: E. coli BL21 (DE3), pET11a
From the text: Capsids assembled in the presence of the carrier DMSO were spherical, ˜40 nm in diameter, and dispersed across the TEM grid.

[2] = target: T2, HBV capsid protein (Cp) (Hepatitis B virus genotype D subtype ayw, UniProt P03146); conditions: HepAD38 cells; concentrations up to 20 μM (~5×EC50)
[3] = tested on: HBV Cp T109I mutant; experiment: HBV core-associated DNA by qPCR in Huh7 cells transfected with Cp mutant plasmid; assay type: cell-based, hepatitis B virus (HBV); conditions: single dose: Bay 38-7690 500 nM, DVR-56 250 nM, ZW-935 250 nM, HF9C6 4 μM
From the text: (§1) The binding site for HAPs and SBAs has been found using X-ray crystallography and mutagenesis techniques. […] To probe this binding site, HBV-expressing plasmids with mutations in Cp (Y118F, T109S, T109M, T109I, I105V, I105L, and I105T) were generated (Klumpp, et al., Proc. Natl. Acad. Sci. USA 112:15196-15201, 2015).

[4] = tested on: HBV Cp I105V mutant; experiment: as above; assay type: cell-based, hepatitis B virus (HBV); conditions: single dose: DVR-56 250 nM, ZW-935 250 nM, HF9C6 4 μM
From the text: as §1

[5] = tested on: HBV Cp T109S mutant; experiment: as above; assay type: cell-based, hepatitis B virus (HBV); conditions: single dose: Bay 38-7690 500 nM, DVR-56 250 nM, ZW-935 250 nM, HF9C6 4 μM
From the text: as §1

[6] = tested on: HBV wild-type (WT) Cp; experiment: HBV core-associated DNA by qPCR in Huh7 cells transfected with wild-type plasmid; assay type: cell-based, hepatitis B virus (HBV); conditions: Bay 38-7690 500 nM, DVR-56 250 nM, ZW-935 250 nM, HF9C6 4 μM
[7] = target: T2, HBV capsid protein (Cp); conditions: HepAD38 cells; 20 μM
[8] = tested on: HBV; experiment: Cell-based anti-HBV activity of HF9C6 analogs (Table 2; HBV DNA in HepAD38 cells); conditions: Hepatitis B virus, Table 2, cell-based, read-out: EC50
Procedure: (§2) HepAD38 cells (5×10^4) were plated in 96-well plates in tet media. The next day, cells were washed 2× with PBS, and the media was replaced with complete media (DMEM, 10% FBS) containing compounds. Fresh complete media with compounds was added again after 2 days. After 2 additional days, cells were washed with PBS, trypsinized, and pelleted by centrifugation. The cell pellet was resuspended in 200 μl PBS, and DNA was extracted and analyzed as above. For dose responses, values were plotted in GraphPad Prism 5 and analyzed with the log (inhibitor) vs. normalized response—variable slope equation.
HepAD38 cells were seeded in 96-well plates (3×10^4 cells/well) in tet media. […] After 2 days, the media was removed, and fresh media containing compounds was added. After 2 additional days, cells were washed with PBS and lysed with 10 mM Tris (pH 7.5), 1mM EDTA, 100mM NaCl, 1% NP-40 at 37° C. for 30 min. 60 μl of lysate was added to 60 μl of 1 M NaOH, 1.5 M NaCl and incubated at RT for 5 min to denature DNA. 120 μl of 1 M Tris (pH 7.4), 2 M NaCl was added. Samples were transferred to positively charged nylon membranes (Roche) using a vacuum dot blot manifold. The wells were washed with 200 μl of 20× SSC (3M NaCl, 300 mM sodium citrate), and the DNA was UV crosslinked to the membranes. […] Membranes were incubated with CDP-STAR® chemiluminescent substrate (Roche), imaged by chemiluminescence, and quantified by densitometry. Values were plotted in GraphPad Prism 5 and analyzed with the log (inhibitor) vs. normalized response—variable slope equation.

[9] = Cytotoxicity, Cell Proliferation Kit II (XTT) (Table 2); assay type: cell-based; conditions: human
[10] = Cytotoxicity with the XTT assay (Table 1); conditions: human, HepAD38 cells
[11] = tested on: HepAD38 cells; experiment: Cytotoxicity with the XTT assay (Table 1)
[12] = tested on: HBV; experiment: Antiviral screening / dose response, total intracellular HBV DNA by qPCR in HepAD38 cells; assay type: cell-based, hepatitis B virus (HBV); conditions: for SI (Selectivity Index): CC50/EC50; for SI (Selectivity Index) / EC50: Table 1; for EC50: Hepatitis B virus, HepAD38 cells, total intracellular HBV DNA as marker
Procedure: HepAD38 cells (ATCC; Ladner, et al., Antimicrob. Agents Chemother. 41:1715-1720, 1997) were maintained in tet media [Dulbecco's Modified Eagle Medium (DMEM) and 10% fetal bovine serum (FBS) plus 0.4 μg/ml tetracycline (tet) and 400 μg/ml G418 (Gibco; Gaithersburg, Md.)]. Cells were incubated at 37° C. with 5% CO2.
Total DNA from HBV-infected cells was extracted using the QIAamp DNA Blood Mini Kit (Qiagen, Germantown, Md.). […] Amplification was conducted by denaturation at 95° C. for 10 min, followed by 40 cycles of denaturation at 95° C. for 15 s and annealing/extension at 60° C. for 1 min using PerfeCTa SYBR® Green FastMix reaction cocktail (Quanta Biosciences, Beverly, Mass.). Amplification was carried out in a PIKOREAL™ Real-Time PCR System. A standard curve was generated with dilutions of the HBV genome-containing plasmid pCMV-HBV-LE-II (Tavis, et al., PLoS Pathogens 9:e1003125, 2013).
as §2
For antiviral screening, HepAD38 cells were treated with 10 μM of each hit compound, and anti-HBV activity was determined by the level of viral DNA.

[13] = tested on: HBV; conditions: cited from earlier work
[14] = tested on: primary human hepatocytes; conditions: cited from earlier work
[15] = high doses; cited from earlier work
[16] = tested on: HBV; conditions: rodent models; cited from earlier work

Cc1c(C(=O)Nc2ccccc2)sc(N)c1C(N)=O [HF9C6]
capsid morphology by TEM [1]: heterogeneous in shape and size, and formed large aggregates on the grid | Cp levels (Western blot) [2]: did not reduce Cp levels | resistance profile, T109I mutant [3]: hypersusceptibility | resistance profile, I105V mutant [4]: does not impart significant resistance | resistance profile, T109S mutant [5]: resistance | suppression of viral DNA production [6]: 75% | Cp distribution/aggregation in cells [7]: concentrated in large foci throughout the cell | Cp nuclear localization [7]: excluded from the nucleus | EC50 [8]: 34 ± 0.6 µM | CC50 ([9]; HepG2 cells): > 100 µM | CC50 [10]: > 300 µM | cytotoxicity (in words) [11]: no observable cytotoxicity | SI (Selectivity Index) [12]: >83 | reduction of HBV DNA ([12]; HepAD38 cells treated with 10 μM, vs DMSO control): ~80% | EC50 [12]: 3.6 ± 0.2 µM

Cc1cc(NC(=O)c2sc(N)c(C(N)=O)c2C)ccc1F [ZW-935, 5-Amino-N2-(4-fluoro-3-methylphenyl)-3-methylthiophene-2,4-dicarboxamide]
resistance profile, T109I mutant [3]: hypersusceptibility | resistance profile, I105V mutant [4]: does not impart significant resistance | resistance profile, T109S mutant [5]: resistance | suppression of viral DNA production [6]: 75% | CC50 ([9]; HepG2 cells): > 100 µM

CCOC(=O)c1c(N)sc(C(=O)Nc2ccccc2)c1C [ZW-1045, Ethyl 2-amino-4-methyl-5-(phenylcarbamoyl)thiophene-3-carboxylate]
EC50 [8]: > 10 µM | CC50 [9]: 75.9 ± 1.8 µM

IFN-α
virological response, share of patients [13]: < 10%

Cc1ccc(CC(=O)Nc2sc(C(=O)Nc3ccccc3)c(C)c2C(N)=O)cc1F [ZW-1051, 5-(2-(3-Fluoro-4-methylphenyl)acetamido)-3-methyl-N2-phenylthiophene-2,4-dicarboxamide]
EC50 [8]: > 10 µM | CC50 ([9]; HepG2 cells): > 100 µM

Cc1c(C(=O)Nc2ccc(F)c(F)c2)sc(N)c1C#N [ZW-1043, 5-Amino-4-cyano-N-(3,4-difluorophenyl)-3-methylthiophene-2-carboxamide]
EC50 [8]: ~10 µM | CC50 ([9]; HepG2 cells): > 100 µM

CCOC(=O)C1=C(CN2CCOCC2)NC(c2nccs2)=NC1c1ccc(F)cc1Br (stereo not drawn) [GLS-4, morphothiadine mesilate]
toxicity to primary human hepatocytes [14]: much less toxic

COC(=O)C1=C(C)NC(c2ncc(F)cc2F)=N[C@H]1c1ccc(F)cc1Cl [Bay 41-4109]
hepatotoxicity [15]: hepatotoxic | inhibition of the virus replication cycle [16]: inhibit the virus replication cycle

Nc1ccn([C@@H]2CS[C@H](CO)O2)c(=O)n1 [Lamivudine (3TC), Lamivudine, reference compound]
CC50 [10]: > 100 µM | SI (Selectivity Index) [12]: >1,111 | EC50 [12]: 0.09 ± 0.01 µM
